The text below walks through data of ChEMBL document CHEMBL5331135, “Design, Synthesis, and Evaluation of Glucose Transporter Inhibitor-SN38 Conjugates for Targeting Colorectal Cancer” (J Med Chem, 2023).

A value given as a limit tells only on which side of the number the result lay.

Data set [1] in a line: Stability in human plasma assessed as half life by RP-HPLC analysis. The data set is classed as ADME, cell-free.
A short description of data set [2]: Stability in human plasma assessed as formation of carboxylate product measured for 72 hrs by RP-HPLC analysis. The data set is classed as ADME, cell-free.
Data set [3] is described as follows: Prodrug conversion in buffer assessed as SN38 release at 1 uM measured for 2 hrs by UHPLC-MS/MS analysis. In kind it is ADME.
The next data set has as its system HCT-116. The data set is described as follows: Cytotoxicity against human HCT-116 cells incubated for 48 hrs by SRB assay. In kind it is functional, cell-based. The note with it: HCT-116, 48 h. For orientation: In SRB staining, fixed cells bind dye roughly in proportion to their protein.
The next data set concerns HT-29. The data set is described as follows: Cytotoxicity against human HT-29 cells incubated for 48 hrs by SRB assay. The data set is classed as functional, cell-based. The following applies: HT-29, 48 h.
The next data set concerns COLO 205. The data set is described as follows: Cytotoxicity against human COLO 205 cells incubated for 48 hrs by SRB assay. In kind it is functional, cell-based. The following applies: COLO 205, 48 h.
A further data set relates to Colorectal cancer cell. The data set is described as follows: Antitumor activity against AOM/DSS-induced orthotopic CRC BALB/c mouse model assessed as reduction in tumor area administered intravenously once every 2 days for 2 weeks by dissecting microscopic analysis. The note with it: dose 20-40 mg/kg, route iv. The data set is classed as functional.
Data set [4] is described as follows: Antitumor activity against AOM/DSS-induced orthotopic CRC BALB/c mouse model assessed as reduction in tumor area at 40 mg/kg, iv administered once every 2 days for 2 weeks by dissecting microscopic analysis relative to control. The data set is classed as functional, Colorectal cancer cell. Further details: scale not given: the % may be the effect or the level left; call rule not given here.

The nature of data set [5]: Toxicity in AOM/DSS-induced orthotopic CRC BALB/c mouse model assessed as body weight loss at 40 mg/kg, iv administered once every 2 days for 2 weeks. The data set is classed as organism-based. The following applies: in vivo, 336 h.
Data set [6] in a line: Toxicity in AOM/DSS-induced orthotopic CRC BALB/c mouse model assessed as lesions in heart at 20 to 40 mg/kg, iv administered once every 2 days for 2 weeks by H&E staining based analysis. The note with it: in vivo, 336 h, dose 20-40 mg/kg. The data set is classed as organism-based.
Data set [7] can be described thus: Toxicity in AOM/DSS-induced orthotopic CRC BALB/c mouse model assessed as lesions in liver at 20 to 40 mg/kg, iv administered once every 2 days for 2 weeks by H&E staining based analysis. The data set is classed as organism-based. The note with it: in vivo, 336 h, dose 20-40 mg/kg.
The nature of data set [8]: Toxicity in AOM/DSS-induced orthotopic CRC BALB/c mouse model assessed as lesions in spleen at 20 to 40 mg/kg, iv administered once every 2 days for 2 weeks by H&E staining based analysis. The following applies: in vivo, 336 h, dose 20-40 mg/kg. In kind it is organism-based.
Data set [9] is described as follows: Toxicity in AOM/DSS-induced orthotopic CRC BALB/c mouse model assessed as lesions in lung at 20 to 40 mg/kg, iv administered once every 2 days for 2 weeks by H&E staining based analysis. In kind it is organism-based. The note with it: in vivo, 336 h, dose 20-40 mg/kg.
Data set [10] in a line: Toxicity in AOM/DSS-induced orthotopic CRC BALB/c mouse model assessed as lesions in kidney at 20 to 40 mg/kg, iv administered once every 2 days for 2 weeks by H&E staining based analysis. The following applies: in vivo, 336 h, dose 20-40 mg/kg. The data set is classed as organism-based.
Data set [11] is described as follows: Toxicity in AOM/DSS-induced orthotopic CRC BALB/c mouse model assessed as lesions in stomach at 20 to 40 mg/kg, iv administered once every 2 days for 2 weeks by H&E staining based analysis. The data set is classed as organism-based. The following applies: in vivo, 336 h, dose 20-40 mg/kg.
Data set [12] can be described thus: Prodrug conversion in lung of BALB/c mouse assessed as SN38 release at 40 mg/kg, iv measured after 4 hrs by UHPLC-MS/MS analysis. The note with it: in vivo. The data set is classed as ADME, organism-based.
Data set [13] can be described thus: Drug uptake in human COLO 205 cells assessed as drug internalization in presence of 4.5 g/L glucose by fluorescence based assay. In kind it is ADME, cell-based.
The nature of data set [14]: Toxicity in AOM/DSS-induced orthotopic CRC BALB/c mouse model assessed as body weight loss at 20 mg/kg, ip administered every other day for 2 weeks. The note with it: in vivo, 336 h. The data set is classed as organism-based.
A short description of data set [15]: Biodistribution in gastrointestinal tract of BALB/c mouse at 20 mg/kg, ip measured after 4 hrs by UHPLC-MS/MS analysis. In kind it is ADME, organism-based. The following applies: in vivo.
Data set [16] in a line: Biodistribution in colorectal tumor site of BALB/c mouse at 20 mg/kg, ip measured after 4 hrs by UHPLC-MS/MS analysis. The data set is classed as ADME, organism-based, Neoplasm. The note with it: in vivo.
Data set [17] can be described thus: Biodistribution in heart of BALB/c mouse at 20 mg/kg, ip measured after 4 hrs by UHPLC-MS/MS analysis. The data set is classed as ADME, organism-based. The note with it: in vivo.
A short description of data set [18]: Biodistribution in liver of BALB/c mouse at 20 mg/kg, ip measured after 4 hrs by UHPLC-MS/MS analysis. In kind it is ADME, organism-based. The note with it: in vivo.
The nature of data set [19]: Biodistribution in spleen of BALB/c mouse at 20 mg/kg, ip measured after 4 hrs by UHPLC-MS/MS analysis. In kind it is ADME, organism-based. The note with it: in vivo.
Data set [20] is described as follows: Biodistribution in brain of BALB/c mouse at 20 mg/kg, ip measured after 4 hrs by UHPLC-MS/MS analysis. In kind it is ADME, organism-based. The note with it: in vivo.
The nature of data set [21]: Prodrug conversion in heart of BALB/c mouse assessed as SN38 release at 20 mg/kg, ip measured after 4 hrs by UHPLC-MS/MS analysis. In kind it is ADME, organism-based. The following applies: in vivo.
A short description of data set [22]: Prodrug conversion in liver of BALB/c mouse assessed as SN38 release at 20 mg/kg, ip measured after 4 hrs by UHPLC-MS/MS analysis. In kind it is ADME, organism-based. The note with it: in vivo.
Data set [23] in a line: Prodrug conversion in spleen of BALB/c mouse assessed as SN38 release at 20 mg/kg, ip measured after 4 hrs by UHPLC-MS/MS analysis. The data set is classed as ADME, organism-based. The note with it: in vivo.
The nature of data set [24]: Prodrug conversion in lung of BALB/c mouse assessed as SN38 release at 20 mg/kg, ip measured after 4 hrs by UHPLC-MS/MS analysis. The following applies: in vivo. In kind it is ADME, organism-based.
Data set [25] in a line: Prodrug conversion in kidney of BALB/c mouse assessed as SN38 release at 20 mg/kg, ip measured after 4 hrs by UHPLC-MS/MS analysis. In kind it is ADME, organism-based. The following applies: in vivo.
The nature of data set [26]: Prodrug conversion in stomach of BALB/c mouse assessed as SN38 release at 20 mg/kg, ip measured after 4 hrs by UHPLC-MS/MS analysis. In kind it is ADME, organism-based. The note with it: in vivo.
Data set [27] can be described thus: Prodrug conversion in intestine of BALB/c mouse assessed as SN38 release at 20 mg/kg, ip measured after 4 hrs by UHPLC-MS/MS analysis. The data set is classed as ADME, organism-based. The note with it: in vivo.
The nature of data set [28]: Prodrug conversion in tumor of BALB/c mouse assessed as SN38 release at 20 mg/kg, ip measured after 4 hrs by UHPLC-MS/MS analysis. The data set is classed as ADME, organism-based, Neoplasm. The note with it: in vivo.
Data set [29] is described as follows: Prodrug conversion in brain of BALB/c mouse assessed as SN38 release at 20 mg/kg, ip measured after 4 hrs by UHPLC-MS/MS analysis. The following applies: in vivo. In kind it is ADME, organism-based.
Data set [30] can be described thus: Drug concentration in heart of BALB/c mouse at 40 mg/kg, iv measured after 4 hrs by UHPLC-MS/MS analysis. The data set is classed as ADME, organism-based. The following applies: in vivo.
A short description of data set [31]: Drug concentration in liver of BALB/c mouse at 40 mg/kg, iv measured after 4 hrs by UHPLC-MS/MS analysis. In kind it is ADME, organism-based. The note with it: in vivo.
Data set [32] is described as follows: Drug concentration in spleen of BALB/c mouse at 40 mg/kg, iv measured after 4 hrs by UHPLC-MS/MS analysis. In kind it is ADME, organism-based. The note with it: in vivo.
The nature of data set [33]: Drug concentration in kidney of BALB/c mouse at 40 mg/kg, iv measured after 4 hrs by UHPLC-MS/MS analysis. The data set is classed as ADME, organism-based. The following applies: in vivo.
Data set [34] can be described thus: Drug concentration in stomach of BALB/c mouse at 40 mg/kg, iv measured after 4 hrs by UHPLC-MS/MS analysis. The following applies: in vivo. In kind it is ADME, organism-based.
The nature of data set [35]: Drug concentration in intestine of BALB/c mouse at 40 mg/kg, iv measured after 4 hrs by UHPLC-MS/MS analysis. The data set is classed as ADME, organism-based. The following applies: in vivo.
Data set [36] in a line: Drug concentration in tumor of BALB/c mouse at 40 mg/kg, iv measured after 4 hrs by UHPLC-MS/MS analysis. The note with it: in vivo. In kind it is ADME, organism-based, Neoplasm.
The nature of data set [37]: Drug concentration in brain of BALB/c mouse at 40 mg/kg, iv measured after 4 hrs by UHPLC-MS/MS analysis. In kind it is ADME, organism-based. The following applies: in vivo.
Data set [38] in a line: Prodrug conversion in tumor of BALB/c mouse assessed as SN38 release at 40 mg/kg, iv measured after 4 hrs by UHPLC-MS/MS analysis. In kind it is ADME, organism-based, Neoplasm. The note with it: in vivo.
A short description of data set [39]: Prodrug conversion in liver of BALB/c mouse assessed as SN38 release at 40 mg/kg, iv measured after 4 hrs by UHPLC-MS/MS analysis. In kind it is ADME, organism-based. The note with it: in vivo.

By half-life is commonly meant the time in which the quantity being followed falls by half. The IC50 is the concentration needed to halve the response being measured. Turning to `CCc1c2c(nc3ccc(OCc4ccc(NC(=O)[C@H](CCCNC(N)=O)NC(=O)[C@@H](NC(=O)CCCCN5C(=O)CC(SCCOCCOCCOc6cc(O)c(C(=O)CCc7ccc(O)cc7)c(O)c6)C5=O)C(C)C)cc4)cc13)-c1cc3c(c(=O)n1C2)COC(=O)[C@]3(O)CC` (some centres not stated), the half-life in data set [1] was 36 h. Moreover, in data set [2], the Stability result was “Stable”. Also, the Drug metabolism entry in [3] is “Not Active”; in data set [12], “Metabolite_Notdetected”. For the same compound, the IC50 with HCT-116 was 7.43 µM; in the data set with HT-29, over 100 µM; in the data set on COLO 205, 4.59 µM. The Activity entry in the data set with Colorectal cancer cell was “Dose-Dependent Effect”; in data set [4], 75%; in data set [5] it was “Non-Toxic”; in data set [6], “Non-Toxic”; in data set [7] it was “Non-Toxic”; in [8], “Non-Toxic”. For the same compound, the Activity entry in data set [9], in data set [10] and in data set [11] was “Non-Toxic” each time. For the same compound, the Drug uptake entry in data set [13] is “Active”.
On to `CCc1c2c(nc3ccc(OC(=O)N4CCC(N5CCCCC5)CC4)cc13)-c1cc3c(c(=O)n1C2)COC(=O)[C@]3(O)CC` [IRINOTECAN], for which the values for the half-maximal inhibitory concentration (IC50) in the data set on HCT-116, with HT-29 and with COLO 205 were 3.69 µM, 8.51 µM and 9.9 µM, respectively. Also, the Activity result in data set [14] and in [5] was “Non-Toxic” in each case. Further, the Drug uptake entry in data set [15], in data set [16], in [17], in data set [18], in [19] and in data set [20] was “Active” throughout. For the same compound, the Drug metabolism entry in data set [21], in [22], in data set [23], in data set [24], in data set [25] and in [26] was “Metabolite_Detected” each time. In addition, the Drug metabolism entry in data set [27], in data set [28], in data set [29], in data set [38] and in data set [39] was “Metabolite_Detected” in each case. Also, the Ct result in [30], in data set [31], in data set [32], in data set [33], in data set [34] and in data set [35] was “Active” throughout. Besides, the Ct entry in [36] and in [37] was “Active” throughout.
